In the OPERA property sets (Mansouri et al. 2018):

details: not given

Point of comparison: `Fc1ccc(C(c2ccc(F)cc2)C(Cl)(Cl)Cl)cc1`, melting point 44.5 °C. Against it:
- O=C1c2ccccc2C(=O)c2c1cc(O)c(O)c2O — higher, 313 °C
- Cc1cnc(NS(=O)(=O)c2ccc(N)cc2)nc1 — higher, 262 °C
- O=C(O)COc1ccccc1 — higher, 98.5 °C
- CCCC(c1ccc(O)cc1)c1ccc(O)cc1 — higher, 137 °C
- CC(=O)[C@H]1CC[C@H]2[C@@H]3CCC4=CC(=O)CC[C@]4(C)[C@H]3CC[C@]12C — higher, 121 °C
- CC(=O)c1ccc(Cl)c(Cl)c1 — higher, 76 °C
- ClC(Cl)C(Cl)Cl — lower, -43.8 °C
- CN1[C@@H]2CC[C@H]1C[C@@H](OC(=O)C(O)c1ccccc1)C2 (mixture of isomers) — higher, 99.5 °C
- O=C(Cl)C(=O)Cl — lower, -16 °C
- O=Cc1ccccc1F — lower, -44.5 °C
- CCC1COC(Cn2cncn2)(c2ccc(Cl)cc2Cl)O1 (configuration not stated) — higher, 84 °C
- CCCCCCCCCCCCCCCCCCCCCCCCCCCCCCCCCCCC — higher, 76.5 °C
- O=C1OC(=Cc2ccccc2)c2ccccc21 — higher, 100 °C
- CC1CCC(C)C(C)C1C (configuration not stated) — lower, -75 °C
- COc1ccccc1N1CCN(CCCC(=O)c2ccc(F)cc2)CC1 — higher, 68 °C
- CCS(=O)(=O)CCO — higher, 46 °C
- N#CN — lower, 44 °C
- CCCCCCCF — lower, -73 °C
- CCN(CC)c1ccc(Cl)cc1 — higher, 45.5 °C
- FC1(F)C(Cl)=C(Cl)C(F)(F)C(F)(F)C1(F)F — lower, -70 °C
- O=C(O)c1cc(I)ccc1O — higher, 190 °C
- CN(C)C(CSC(N)=O)CSC(N)=O.Cl — higher, 180 °C
- FC(F)(F)c1ccc(Cl)c(Cl)c1 — lower, -12.5 °C
- C=C(C)OC(C)=O — lower, -92.9 °C
- COc1ccc(CCN2CCC(Nc3nc4ccccc4n3Cc3ccc(F)cc3)CC2)cc1 — higher, 149 °C
- Nc1ccc2ncsc2c1 — higher, 87 °C
- NNC(N)=O — higher, 96 °C
- Nc1ccc(C2(c3ccc(N)cc3)OC(=O)c3ccccc32)cc1 — higher, 203 °C
- Cc1ccc2cc3ccc4ccccc4c3cc2c1 — higher, 183 °C
- COCCOc1ccccc1S(=O)(=O)N=C(O)N=c1nc(OC)[nH]c(OC)n1 — higher, 130 °C
- COc1ccc(Cl)c(N)c1 — lower, 27 °C
- CCc1ccc2c(c1)C(=O)c1ccccc1C2=O — higher, 110 °C
- CC(C)(C)[C@H](O)/C(=C\c1ccc(Cl)cc1)n1cncn1 — higher, 153 °C
- O=[N+]([O-])c1cccc(S(=O)(=O)NCCNS(=O)(=O)c2cccc([N+](=O)[O-])c2)c1 — higher, 190 °C
- NC1=NCC(c2ccccc2)O1 (configuration not stated) — higher, 136 °C
- CC1=CC(=O)NS(=O)(=O)O1 — higher, 123 °C
- Cc1ccc(-c2ccccc2)cc1C — lower, 29.5 °C
- O=c1c2ccccc2sc2ccccc12 — higher, 209 °C
- ON=C1CCCCC1=NO — higher, 192 °C
- Cc1cc(C)cc(C(=O)O)c1 — higher, 171 °C
- ClCC(CCl)(CCl)CCl — higher, 97 °C
- O=C(O)CCSCCC(=O)O — higher, 129 °C
- CC1(C)OC[C@@H]2O[C@@]3(C(=O)O)OC(C)(C)O[C@H]3[C@@H]2O1 — higher, 74 °C
- CCCC1C(=O)N2C(N(C)C)=Nc3ccc(C)cc3N2C1=O (configuration not stated) — higher, 247 °C
- O=C(N/N=C/C=C/c1ccc([N+](=O)[O-])o1)c1ccc([N+](=O)[O-])s1 — higher, 236 °C
- C=Cc1ccc(C)cc1 — lower, -34.1 °C
- CNC(=S)NCO — higher, 89 °C
- Cc1cc(O)c(Cl)cc1Cl — higher, 73 °C
- NCCCO — lower, 11 °C
- CCCCCCCCCCCCCCCCCC(=O)OCCC(C)C — lower, 25.5 °C
- FC(F)(F)CCl — lower, -106 °C
- COC(=O)CC#N — lower, -22.5 °C
- COc1ccccc1[N+](=O)[O-] — lower, 10.5 °C
- Brc1ccccc1I — lower, 9.5 °C
- COC(=O)c1ccc(C(=O)OC)o1 — higher, 112 °C
- Cc1ccc(C)c(O)c1 — higher, 74.8 °C
- CCCCC(=O)c1ccc(N)cc1 — higher, 74.5 °C
- CN(C)c1ccc(Cl)cc1 — lower, 35.5 °C
- CCCCCCCCOC=O — lower, -39.1 °C
- CCCC(=O)Nc1ccc(O)cc1 — higher, 140 °C
- O=C(O)/C=C/c1ccc(Cl)cc1Cl — higher, 234 °C
- OC1CCCCCCCCC1 — lower, 40.5 °C
- c1ccc(C2OCCCO2)cc1 — lower, 41 °C
- CCC(O)(COC(N)=O)c1ccccc1 (configuration not stated) — higher, 55 °C
- O=[N+]([O-])c1ccccc1CCl — higher, 51 °C
- Cc1cccc(O)c1O — higher, 68 °C
- O=C(OCC(O)CO)c1ccccc1Nc1ccnc2cc(Cl)ccc12 (configuration not stated) — higher, 170 °C
- CC(=O)O[C@H]1C[C@@]2(C)[C@@H](C[C@@H](O)[C@H]3[C@@]4(C)CC[C@@H](O)[C@@H](C)[C@@H]4CC[C@@]32C)/C1=C(\CCC=C(C)C)C(=O)O — higher, 192 °C
- Cc1cccc(C(C)(C)C)c1O — lower, 31 °C
- CC(=O)O[C@]1(C(C)=O)CC[C@H]2[C@@H]3C[C@H](C)C4=CC(=O)C=C[C@]4(C)[C@@]3(F)[C@@H](O)C[C@@]21C — higher, 298 °C
- C[C@H]1C[C@H]2[C@@H]3CCC4=CC(=O)C=C[C@]4(C)[C@@]3(F)[C@@H](O)C[C@]2(C)[C@@]1(O)C(=O)CCl — higher, 196 °C
- O=C(/C=C/C=C/c1ccc2c(c1)OCO2)N1CCCCC1 — higher, 132 °C

With `CCC(=O)CC(=O)CC` the ready biodegradability was “readily biodegradable”.
In the case of `ClC(Cl)C(Cl)Cl`, the ready biodegradability is reported as “not readily biodegradable”.
With `CCCCCCCCCCCCCCCCCCCCCCCCCCCCCCCCCCCC` the ready biodegradability was “readily biodegradable”.
In the case of `CCCCCCC(C)O` (configuration not stated), the ready biodegradability is reported as “readily biodegradable”.
For `CO[Si](CCCN=C(N(C)C)N(C)C)(OC)OC`, the ready biodegradability was “not readily biodegradable”.
With `CCc1ccc2c(c1)C(=O)c1ccccc1C2=O` the ready biodegradability was “not readily biodegradable”.
For `O=C(O)CCSCCC(=O)O`, the ready biodegradability was “readily biodegradable”.
With `COc1ccccc1[N+](=O)[O-]` the ready biodegradability was “not readily biodegradable”.
With `Cc1ccc(C)c(O)c1` the ready biodegradability was “not readily biodegradable”.
In the case of `c1ccc(N(CC2CO2)CC2CO2)cc1` (configuration not stated), the ready biodegradability is reported as “not readily biodegradable”.
In the case of `Cc1cccc(C(C)(C)C)c1O`, the ready biodegradability is reported as “not readily biodegradable”.

Point of comparison: `CCOC(CCCN)OCC`, boiling point 196 °C. Against it:
- C=CCC(C(C)=O)C(=O)OCC (configuration not stated) — higher, 208 °C
- O=C(O)COc1ccccc1 — higher, 285 °C
- CC(N)CN (configuration not stated) — lower, 120 °C
- CCC(C)(C)Br — lower, 108 °C
- Cc1cc(C)c(N(C)C)c(C)c1 — higher, 214 °C
- FC(F)(F)C(F)(F)C(F)(F)C(F)(F)C(F)(F)C(F)(F)C(F)(F)C(F)(F)C(F)(F)C(F)(F)Br — higher, 198 °C
- ClC(Cl)C(Cl)Cl — lower, 146 °C
- O=C(Cl)C(=O)Cl — lower, 63.5 °C
- FC1C(F)(F)C(F)(F)C(F)(F)C(F)(F)C1(F)F — lower, 62 °C
- O=Cc1ccccc1F — lower, 175 °C
- CCOC(=O)C(C#N)(CC)CC — higher, 214 °C
- CCCCCCCF — lower, 118 °C
- CCN(CC)c1ccc(Cl)cc1 — higher, 252 °C
- N#CSc1ccccc1 — higher, 232 °C
- FC1(F)C(Cl)=C(Cl)C(F)(F)C(F)(F)C1(F)F — lower, 113 °C
- C=C(CC)c1ccccc1 — lower, 182 °C
- c1cocn1 — lower, 69.5 °C
- O=CC1CCC=CO1 (configuration not stated) — lower, 146 °C
- FC(F)(F)c1ccc(Cl)c(Cl)c1 — lower, 174 °C
- C=C(C)OC(C)=O — lower, 97 °C
- Cc1ccc(C(C)c2ccc(C)cc2)cc1 — higher, 298 °C
- Cc1ccc(-c2ccccc2)cc1C — higher, 282 °C
- O=c1c2ccccc2sc2ccccc12 — higher, 373 °C
- C[SiH](O[SiH](C)O[Si](C)(C)C)O[Si](C)(C)C (configuration not stated) — lower, 170 °C
- CCC(CC)(CC)C(C)C — lower, 172 °C
- COCC(C)OC (configuration not stated) — lower, 96 °C
- C=Cc1ccc(C)cc1 — lower, 173 °C
- Cc1cc2ccoc2cc1C — higher, 221 °C
- Cc1cc(O)c(Cl)cc1Cl — higher, 234 °C
- NCCCO — lower, 188 °C
- CC(=O)C(Cl)(Cl)Cl — lower, 149 °C
- FC(F)(F)CCl — lower, 6.1 °C
- COC(=O)CC#N — higher, 200 °C
- COc1ccccc1[N+](=O)[O-] — higher, 277 °C
- CCN(CC)c1ccc(C)cc1 — higher, 229 °C
- Brc1ccccc1I — higher, 257 °C
- Cc1ccc(C)c(O)c1 — higher, 211 °C
- CN(C)c1ccc(Cl)cc1 — higher, 231 °C
- CCCCCCCCOC=O — higher, 199 °C
- c1ccc(C2OCCCO2)cc1 — higher, 253 °C
- Cc1cccc(O)c1O — higher, 241 °C
- CC(C)NNC(C)C — lower, 125 °C
- Cc1cccc(C(C)(C)C)c1O — higher, 230 °C
- Cc1ccc(CCO)cc1 — higher, 244 °C

Point of comparison: `CCCCOC(=O)Nc1ccccc1`, log10 Koc (L/kg) 2.26. Against it:
- ClC(Cl)C(Cl)Cl — lower, 1.9
- COc1ccc(NC(=O)N(C)C)cc1 — lower, 1.4

Point of comparison: `FC(F)(F)c1ccc(Cl)c(Cl)c1`, log10 vapour pressure (mmHg) 0.372. Against it:
- CC(N)CN (configuration not stated) — higher, 1.03
- ClC(Cl)C(Cl)Cl — higher, 0.665
- CC1CCC(C)C(C)C1C (configuration not stated) — lower, 0.117
- N#CN — lower, -2.43
- CCCCCCCF — higher, 1.26
- c1cocn1 — higher, 2.12
- CCCCCCC(C)O (configuration not stated) — lower, -0.616
- Clc1ccc(Cl)c(Oc2ccccc2)c1 — lower, -3
- C=Cc1ccc(C)cc1 — within 0.2 log units, 0.258
- NCCCO — lower, -1.11
- COC(=O)CC#N — lower, -0.86
- COc1ccccc1[N+](=O)[O-] — lower, -2.44
- Cc1ccc(C)c(O)c1 — lower, -0.807
- CCCCCCCCCBr — lower, -0.921

Point of comparison: `Clc1ccc(-c2ccc(Cl)c(Cl)c2)cc1`, log10 Henry constant (atm·m³/mol) -4. Against it:
- ClC(Cl)C(Cl)Cl — higher, -3.44
- CCCCCCC(C)O (configuration not stated) — within 0.2 log units, -3.91
- Cc1ccc(C)c(O)c1 — lower, -5.95

same assay, conditions: fish

Point of comparison: `Brc1cc(Oc2c(Br)c(Br)c(Br)c(Br)c2Br)c(Br)c(Br)c1Br`, log10 BCF 5.44. Against it:
- ClC(Cl)C(Cl)Cl — lower, 1.11
- CC(C)c1ccc2c(c1)CC[C@H]1[C@](C)(C(=O)O)CCC[C@]21C — lower, 2.12
- FC(F)(F)c1ccc(Cl)c(Cl)c1 — lower, 3.18
- CCc1ccc2c(c1)C(=O)c1ccccc1C2=O — lower, 0.98
- Clc1ccc(Oc2ccc(Cl)c(Cl)c2)cc1Cl — lower, 4.51
- C=Cc1ccc(C)cc1 — lower, 1.5
- COc1ccccc1[N+](=O)[O-] — lower, 0.7

Point of comparison: `ClC(Cl)C(Cl)Cl`, log10 biotransformation half-life (days) -0.67. Against it:
- FC(F)(F)c1ccc(Cl)c(Cl)c1 — higher, 1.52
- COc1ccccc1[N+](=O)[O-] — lower, -1.04
